Measurements from PubChem BioAssay AID248 (DTP/NCI, 2004).
Values joined by “and” are separate entries in the source; they are usually repeats but may differ in a detail not shown here. Equal entries are not always repeated. Toxic doses and inconclusive results are not listed. Rule as the data show it: active = T/C of 150% or more; inactive = T/C below 125%.

Tested on: L1210 leukemia ip in BDF1 mice, survival T/C
Experiment: NCI In Vivo Anticancer Drug Screen. Data for tumor model L1210 Leukemia (intraperitoneal) in B6D2F1 (BDF1) mice
Settings: endpoint: mean survival time, higher = longer survival
In short: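 Ratio derived from survival: compound-dosed mice over vehicle-dosed mice, all bearing a transplantable tumor.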

[1] = dose: 12.5 mg/kg/injection, schedule: Q01DX009 (ip), vehicle: Klucel (hydroxypropylcellulose) (HPC)
[2] = dose: 25.0 mg/kg/injection, schedule: Q01DX009 (ip), vehicle: Klucel (hydroxypropylcellulose) (HPC)
[3] = dose: 50.0 mg/kg/injection, schedule: Q01DX009 (ip), vehicle: Klucel (hydroxypropylcellulose) (HPC)
[4] = dose: 25.0 mg/kg/injection, schedule: Q04DX003 (ip), vehicle: Klucel (hydroxypropylcellulose) (HPC)
[5] = dose: 50.0 mg/kg/injection, schedule: Q04DX003 (ip), vehicle: Klucel (hydroxypropylcellulose) (HPC)
[6] = dose: 100.0 mg/kg/injection, schedule: Q01DX009 (ip), vehicle: saline
[7] = dose: 100.0 mg/kg/injection, schedule: Q04DX003 (ip), vehicle: saline
[8] = dose: 200.0 mg/kg/injection, schedule: Q01DX009 (ip), vehicle: saline
[9] = dose: 200.0 mg/kg/injection, schedule: Q04DX003 (ip), vehicle: saline
[10] = dose: 400.0 mg/kg/injection, schedule: Q01DX009 (ip), vehicle: saline
[11] = dose: 400.0 mg/kg/injection, schedule: Q04DX003 (ip), vehicle: saline
[12] = dose: 100.0 mg/kg/injection, schedule: Q04DX003 (ip), vehicle: saline with Tween-80
[13] = dose: 200.0 mg/kg/injection, schedule: Q04DX003 (ip), vehicle: saline with Tween-80
[14] = dose: 400.0 mg/kg/injection, schedule: Q04DX003 (ip), vehicle: saline with Tween-80
[15] = dose: 100.0 mg/kg/injection, schedule: Q01DX009 (ip), vehicle: Klucel (hydroxypropylcellulose) (HPC)
[16] = dose: 100.0 mg/kg/injection, schedule: Q01DX001 (ip), vehicle: saline
[17] = dose: 200.0 mg/kg/injection, schedule: Q01DX001 (ip), vehicle: saline
[18] = dose: 100.0 mg/kg/injection, schedule: Q04DX003 (ip), vehicle: Klucel (hydroxypropylcellulose) (HPC)

Measured: T/C

COC1=C(OC)C(=O)c2ccccc2C1=O
inactive: [1] 95 % of control | [2] 92 % of control | [3] 98 % of control

CCN(CC)C(=O)c1c(Cl)n(C)c2ccccc12
inactive: dose: 12.5 mg/kg/injection, schedule: Q04DX003 (ip), vehicle: Klucel (hydroxypropylcellulose) (HPC) 95 % of control | [4] 104 % of control | [5] 104 % of control

CCOC(=O)CCN1CCCC1
inactive: [6] 110 % of control | [7] 94 % of control | [8] 106 % of control | [9] 103 % of control | [10] 105 % of control | [11] 103 % of control

O=Cc1cc2c(cc1Cl)OCO2
inactive: [12] 92 % of control | [13] 86 % of control | [14] 97 % of control

O=C(N=C(c1ccccc1)c1ccccc1)c1ccccc1
inactive: [12] 90 % of control | [13] 90 % of control | [14] 88 % of control

CCOC(=O)c1ccccc1COc1ccc([N+](=O)[O-])cc1Cl
inactive: [15] 93 % of control | dose: 200.0 mg/kg/injection, schedule: Q01DX009 (ip), vehicle: Klucel (hydroxypropylcellulose) (HPC) 93 % of control | dose: 400.0 mg/kg/injection, schedule: Q01DX009 (ip), vehicle: Klucel (hydroxypropylcellulose) (HPC) 88 % of control

CCc1c(Cl)nc(N)nc1Nc1ccc(C)c(C)c1
inactive: dose: 100.0 mg/kg/injection, schedule: Q01DX Z (ip), vehicle: methylcellulose (MC) 91 % of control | dose: 200.0 mg/kg/injection, schedule: Q01DX Z (ip), vehicle: methylcellulose (MC) 93 % of control

CCOP(=O)(OCC)c1ccc([N+](=O)[O-])cc1
inactive: [16] 87 % of control | [17] 89 % of control

CCCCCC(=O)N1CCCCC1C (stereo not given)
inactive: dose: 50.0 mg/kg/injection, schedule: Q01DX001 (ip), vehicle: carboxymethylcellulose (CMC) 97 % of control | dose: 50.0 mg/kg/injection, schedule: Q01DX009 (ip), vehicle: carboxymethylcellulose (CMC) 95 % of control and 97 % of control | dose: 50.0 mg/kg/injection, schedule: Q04DX002 (ip), vehicle: carboxymethylcellulose (CMC) 96 % of control and 98 % of control | dose: 50.0 mg/kg/injection, schedule: Q04DX003 (ip), vehicle: carboxymethylcellulose (CMC) 98 % of control | dose: 100.0 mg/kg/injection, schedule: Q01DX001 (ip), vehicle: carboxymethylcellulose (CMC) 103 % of control | dose: 100.0 mg/kg/injection, schedule: Q01DX009 (ip), vehicle: carboxymethylcellulose (CMC) 96 % of control and 98 % of control | dose: 100.0 mg/kg/injection, schedule: Q04DX002 (ip), vehicle: carboxymethylcellulose (CMC) 97 % of control and 109 % of control and 92 % of control | dose: 100.0 mg/kg/injection, schedule: Q04DX003 (ip), vehicle: carboxymethylcellulose (CMC) 93 % of control | dose: 200.0 mg/kg/injection, schedule: Q01DX001 (ip), vehicle: carboxymethylcellulose (CMC) 90 % of control | dose: 200.0 mg/kg/injection, schedule: Q04DX002 (ip), vehicle: carboxymethylcellulose (CMC) 100 % of control and 86 % of control | dose: 200.0 mg/kg/injection, schedule: Q04DX003 (ip), vehicle: carboxymethylcellulose (CMC) 95 % of control

CC(C)(C)NCC(CN(CC(CNC(C)(C)C)C(=O)c1ccccc1)C(C)(C)C)C(=O)c1ccccc1 (stereo not given)
inactive: [1] 104 % of control | [2] 101 % of control | [3] 106 % of control | [18] 93 % of control

CC1(C)C(=O)C(O)=C[C@@]2(C)C1=CC[C@H]1[C@@H]3CC[C@H](O)[C@@]3(C)CC[C@@H]12
inactive: dose: 100.0 mg/kg/injection, schedule: Q01DX001 (sc), vehicle: steriod suspending solution 97 % of control | dose: 200.0 mg/kg/injection, schedule: Q01DX001 (sc), vehicle: steriod suspending solution 104 % of control | dose: 400.0 mg/kg/injection, schedule: Q01DX001 (sc), vehicle: steriod suspending solution 97 % of control

CC(C)(C)C1CCC(NC(=O)C(Cl)Cl)CC1 (stereo not given)
inactive: [2] 100 % of control | [4] 97 % of control | [3] 94 % of control | [5] 100 % of control | [15] 96 % of control | [18] 90 % of control and 92 % of control

CCCCCCCCOc1ccc(N(C)C(N)=S)cc1
inactive: [18] 97 % of control | dose: 200.0 mg/kg/injection, schedule: Q04DX003 (ip), vehicle: Klucel (hydroxypropylcellulose) (HPC) 101 % of control | dose: 400.0 mg/kg/injection, schedule: Q04DX003 (ip), vehicle: Klucel (hydroxypropylcellulose) (HPC) 106 % of control

CCCCCCCCCCCCCC(=O)OCC(OC(=O)CCCCCCCCCCCCC)C(OC(=O)CCCCCCCCCCCCC)C(OC(=O)CCCCCCCCCCCCC)C(C=O)OC(=O)CCCCCCCCCCCCC (stereo not given)
inactive: dose: 100.0 mg/kg/injection, schedule: Q01DX001 (ip), vehicle: other 90 % of control | dose: 200.0 mg/kg/injection, schedule: Q01DX001 (ip), vehicle: other 97 % of control | dose: 400.0 mg/kg/injection, schedule: Q01DX001 (ip), vehicle: other 92 % of control

c1ccc(OC2COC(Oc3ccccc3)CO2)cc1 (stereo not given)
inactive: [16] 97 % of control | dose: 100.0 mg/kg/injection, schedule: Q01DX009 (ip), vehicle: acetone 97 % of control | [7] 103 % of control | [17] 87 % of control | dose: 200.0 mg/kg/injection, schedule: Q01DX009 (ip), vehicle: acetone 92 % of control | [9] 97 % of control | dose: 400.0 mg/kg/injection, schedule: Q01DX001 (ip), vehicle: saline 90 % of control | dose: 400.0 mg/kg/injection, schedule: Q01DX009 (ip), vehicle: acetone 87 % of control | [11] 95 % of control

COc1cc(C(=O)N(C)C2CCCCC2)cc(OC)c1OC
inactive: [12] 98 % of control | [13] 98 % of control | [14] 102 % of control

NS(=O)(=O)c1ccc(NC(=O)Nc2ccccc2F)cc1
inactive: dose: 100.0 mg/kg/injection, schedule: Q01DX001 (ip), vehicle: saline with Tween-80 102 % of control | dose: 100.0 mg/kg/injection, schedule: Q01DX009 (ip), vehicle: saline with Tween-80 98 % of control and 104 % of control | dose: 100.0 mg/kg/injection, schedule: Q04DX002 (ip), vehicle: saline with Tween-80 93 % of control and 97 % of control | dose: 200.0 mg/kg/injection, schedule: Q01DX001 (ip), vehicle: saline with Tween-80 101 % of control | dose: 200.0 mg/kg/injection, schedule: Q01DX009 (ip), vehicle: saline with Tween-80 93 % of control and 102 % of control | dose: 200.0 mg/kg/injection, schedule: Q04DX002 (ip), vehicle: saline with Tween-80 98 % of control and 105 % of control | dose: 400.0 mg/kg/injection, schedule: Q01DX001 (ip), vehicle: saline with Tween-80 90 % of control | dose: 400.0 mg/kg/injection, schedule: Q01DX009 (ip), vehicle: saline with Tween-80 98 % of control and 102 % of control | dose: 400.0 mg/kg/injection, schedule: Q04DX002 (ip), vehicle: saline with Tween-80 96 % of control and 97 % of control

O=C(O)c1ccccc1C(=O)c1cccs1
inactive: [6] 94 % of control | dose: 100.0 mg/kg/injection, schedule: Q04DX003 (ip), vehicle: other 113 % of control | [8] 97 % of control | dose: 200.0 mg/kg/injection, schedule: Q04DX003 (ip), vehicle: other 105 % of control | [10] 96 % of control | dose: 400.0 mg/kg/injection, schedule: Q04DX003 (ip), vehicle: other 94 % of control

CNN=C(C)C
inactive: dose: 12.5 mg/kg/injection, schedule: Q01DX001 (ip), vehicle: saline 94 % of control | dose: 12.5 mg/kg/injection, schedule: Q01DX009 (ip), vehicle: saline 105 % of control | dose: 12.5 mg/kg/injection, schedule: Q04DX003 (ip), vehicle: saline 96 % of control | dose: 25.0 mg/kg/injection, schedule: Q01DX001 (ip), vehicle: saline 94 % of control | dose: 25.0 mg/kg/injection, schedule: Q01DX009 (ip), vehicle: saline 100 % of control | dose: 25.0 mg/kg/injection, schedule: Q04DX003 (ip), vehicle: saline 98 % of control | dose: 50.0 mg/kg/injection, schedule: Q01DX001 (ip), vehicle: saline 97 % of control | dose: 50.0 mg/kg/injection, schedule: Q04DX003 (ip), vehicle: saline 98 % of control
